From patent US9273057B2 (Bristol-Myers Squibb Company, priority 2012, dated 2016)
pIC50: −log10 of the molar value.

target: CK2A1 (CK2α/β) (Homo sapiens, UniProt P68400); assay: CK2 kinase assay, CK2A1 (CK2α/β); type: biochemical; conditions: Table A; read-out: CK2A1 (CK2α/β) (IC50)
Sequence (P68400 whole entry, species assumed): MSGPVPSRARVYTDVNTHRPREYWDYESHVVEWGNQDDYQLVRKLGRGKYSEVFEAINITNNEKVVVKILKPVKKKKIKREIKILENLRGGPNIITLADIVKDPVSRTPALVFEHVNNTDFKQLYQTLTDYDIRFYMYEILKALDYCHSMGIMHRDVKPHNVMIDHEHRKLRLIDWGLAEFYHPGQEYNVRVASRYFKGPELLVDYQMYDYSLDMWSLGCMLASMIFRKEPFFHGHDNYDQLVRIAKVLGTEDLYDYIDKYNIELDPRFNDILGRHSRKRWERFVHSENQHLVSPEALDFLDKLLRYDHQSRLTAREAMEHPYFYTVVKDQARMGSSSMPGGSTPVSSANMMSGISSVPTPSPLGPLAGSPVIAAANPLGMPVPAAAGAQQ
Sequence (P67870 whole entry partner, species assumed): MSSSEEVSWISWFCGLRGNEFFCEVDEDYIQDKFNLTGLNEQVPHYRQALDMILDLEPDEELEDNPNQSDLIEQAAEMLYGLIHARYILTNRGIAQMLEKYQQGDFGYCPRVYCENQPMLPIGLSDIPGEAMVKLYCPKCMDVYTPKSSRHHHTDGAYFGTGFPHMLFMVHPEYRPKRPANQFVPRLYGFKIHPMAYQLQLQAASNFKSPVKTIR

| pIC50 | Structure (SMILES) |
| --- | --- |
| 8.74 | CN1CCCN(c2cc(C#N)cc(Nc3nc(NC4CC4)c4ncc(C#N)n4n3)c2Cl)C(=O)C1 [Example 635, 2-((2-chloro-5-cyano-3-(4-methyl-2-oxo-1,4-diazepan-1-yl)phenyl)amino)-4-(cyclopropylamino)imidazo[2,1-f][1,2,4]triazine-7-carbonitrile] |
| 8.22 | CN1CCN(c2cc(C#N)cc(Nc3nc(NC4CC4)c4ncc(C#N)n4n3)c2)C(=O)C1 [Example 629, 2-((3-cyano-5-(4-methyl-2-oxopiperazin-1-yl)phenyl)amino)-4-(cyclopropylamino)imidazo[2,1-f][1,2,4]triazine-7-carbonitrile] |
| 8.62 | N#Cc1cc(Nc2nc(NC3CC3)c3ncc(C#N)n3n2)c(Cl)c(C(O)CN2CCC(O)CC2)c1 (stereo not shown) [Example 688, 2-((2-chloro-5-cyano-3-(1-hydroxy-2-(4-hydroxypiperidin-1-yl)ethyl)phenyl)amino)-4-(cyclopropylamino)imidazo[2,1-f][1,2,4]triazine-7-carbonitrile] |
| 10.00 | N#Cc1cc(Nc2nc(NC3CC3)c3ncc(C#N)n3n2)c(Cl)cc1CCCO [Example 566, 2-((2-chloro-5-cyano-4-(3-hydroxypropyl)phenyl)amino)-4-(cyclopropylamino)imidazo[2,1-f][1,2,4]triazine-7-carbonitrile] |
| 9.09 | COCC(=O)N1CC(N2CCN(c3cc(C#N)cc(Nc4nc(NC5CC5)c5ncc(C#N)n5n4)c3Cl)CC2)C1 [Example 497, 2-[(2-chloro-5-cyano-3-{4-[1-(2-methoxyacetyl)azetidin-3-yl]piperazin-1-yl}phenyl)amino]-4-(cyclopropylamino)imidazo[2,1-f][1,2,4]triazine-7-carbonitrile] |
| 9.12 | CNC(=O)CN1CCC(c2cc(C#N)cc(Nc3nc(NC4CC4)c4ncc(C#N)n4n3)c2Cl)CC1 [Example 642, 2-(4-(2-chloro-5-cyano-3-((7-cyano-4-(cyclopropylamino)imidazo[2,1-f][1,2,4]triazin-2-yl)amino)phenyl)piperidin-1-yl)-N-methylacetamide] |
| 8.31 | COC(=O)N[C@H]1CCN(c2cc(C#N)cc(Nc3nc(NC4CC4)c4ncc(C#N)n4n3)c2Cl)CC1NC(C)C (stereo in doubt) [Example 752, methyl N-[(3R,4S)-1-(2-chloro-5-cyano-3-{[7-cyano-4-(cyclopropylamino)imidazo [2,1-f][1,2,4]triazin-2-yl]amino}phenyl)-3-[(propan-2-yl)amino]piperidin-4-yl]carbamate] |
| 8.85 | N#Cc1cc(Nc2nc(NC3CC3)c3ncc(C#N)n3n2)c(Cl)c(N2CCN([C@H]3C[C@H](F)C3)CC2)c1 [Example 601, 2-[(2-chloro-5-cyano-3-{4-[(1r,3r)-3-fluorocyclobutyl]piperazin-1-yl}phenyl)amino]-4-(cyclopropylamino)imidazo [2,1-f][1,2,4]triazine-7-carbonitrile] |
| 8.26 | COC(=O)NCC1CN(c2cc(C#N)cc(Nc3nc(NC4CC4)c4ncc(C#N)n4n3)c2Cl)CCN1C (stereo not shown) [Example 713, methyl N-{[4-(2-chloro-5-cyano-3-{[7-cyano-4-(cyclopropylamino)imidazo[2,1-f][1,2,4]triazin-2-yl]amino}phenyl)-1-methylpiperazin-2-yl]methyl}carbamate] |
| 8.68 | CC1(N2CCN(c3cc(OC(F)F)cc(Nc4nc(NC5CC5)c5ncc(C#N)n5n4)c3Cl)CC2)COC1 [Example 561, 2-((2-chloro-5-(difluoromethoxy)-3-(4-(3-methyloxetan-3-yl)piperazin-1-yl)phenyl)amino)-4-(cyclopropylamino)imidazo[2,1-f][1,2,4]triazine-7-carbonitrile] |
| 9.01 | CC(CCN1CC(O)C1)c1cc(C#N)cc(Nc2nc(NC3CC3)c3ncc(C#N)n3n2)c1Cl (stereo not shown) [Example 575, 2-((2-chloro-5-cyano-3-(4-(3-hydroxyazetidin-1-yl)butan-2-yl)phenyl)amino)-4-(cyclopropylamino)imidazo[2,1-f][1,2,4]triazine-7-carbonitrile] |
| 9.06 | N#Cc1cc(Nc2nc(NC3CC3)c3ncc(C#N)n3n2)c(Cl)c(N2CCN(C3CN(C(=O)CC4CCOCC4)C3)CC2)c1 [Example 483, 2-{[2-chloro-5-cyano-3-(4-{1-[2-(oxan-4-yl)acetyl]azetidin-3-yl}piperazin-1-yl)phenyl]amino}-4-(cyclopropylamino)imidazo[2,1-f][1,2,4]triazine-7-carbonitrile] |

The remaining lines, values behind:

| Structure (SMILES) | pIC50 |
| --- | --- |
| CS(=O)(=O)CCN1CC(N2CCN(c3cc(C#N)cc(Nc4nc(NC5CC5)c5ncc(C#N)n5n4)c3Cl)CC2)C1 [Example 70] | 9.27 |
| CC(C)(O)C(=O)N1CCC(c2cc(C#N)cc(Nc3nc(NC4CC4)c4ncc(C#N)n4n3)c2Cl)CC1 [Example 231, 2-((2-chloro-5-cyano-3-(1-(2-hydroxy-2-methylpropanoyl)-4-piperidinyl)phenyl)amino)-4-(cyclopropylamino)imidazo[2,1-f][1,2,4]triazine-7-carbonitrile] | 9.35 |
| N#Cc1cc(Nc2nc(NC3CC3)c3ncc(C#N)n3n2)c(Cl)c(OC2CNCCOC2)c1 (racemic) [Example 440, (+/−)-2-((3-((1,4-oxazepan-6-yl)oxy)-2-chloro-5-cyanophenyl)amino)-4-(cyclopropylamino)imidazo[2,1-f][1,2,4]triazine-7-carbonitrile] | 9.06 |
| COCCN1CCC(N2CCN(c3cc(C#N)cc(Nc4nc(NC5CC5)c5ncc(C#N)n5n4)c3Cl)CC2)CC1 [Example 63, 2-((2-chloro-5-cyano-3-(4-(1-(2-methoxyethyl)-4-piperidinyl)-1-piperazinyl)phenyl)amino)-4-(cyclopropylamino) imidazo[2,1-f][1,2,4] triazine-7-carbonitrile] | 9.15 |
| N#Cc1cc(Nc2nc(NC3CC3)c3ncc(C#N)n3n2)c(F)cc1OC[C@@H]1COCCN1 [Example 417, (S)-2-((5-cyano-2-fluoro-4-(morpholin-3-ylmethoxy)phenyl)amino)-4-(cyclopropylamino)imidazo[2,1-f][1,2,4]triazine-7-carbonitrile] | 9.51 |
| N#Cc1cc(Nc2nc(NC3CC3)c3ncc(C#N)n3n2)c(OCCN2CCOCC2)cc1F [Example 421, 2-((5-cyano-4-fluoro-2-(2-morpholinoethoxy)phenyl)amino)-4-(cyclopropylamino)imidazo[2,1-f][1,2,4]triazine-7-carbonitrile] | 9.21 |
| N#Cc1cc(Nc2nc(NC3CC3)c3ncc(C#N)n3n2)c(Cl)c(N2CCN(C3CN(C(=O)C4(O)CC4)C3)CC2)c1 [Example 481, 2-[(2-chloro-5-cyano-3-{4-[1-(1-hydroxycyclopropane-carbonyl)azetidin-3-yl]piperazin-1-yl}phenyl)amino]-4-(cyclopropylamino)imidazo[2,1-f][1,2,4]triazine-7-carbonitrile] | 9.03 |
| N#Cc1cc(Nc2nc(NC3CC3)c3ncc(C#N)n3n2)c(Cl)cc1NC1CCNCC1 [Example 410, 2-((2-chloro-5-cyano-4-(piperidin-4-ylamino)phenyl)amino)-4-(cyclopropylamino)imidazo[2,1-f][1,2,4]triazine-7-carbonitrile] | 9.17 |
| C[C@@H]1OCC[C@@H]1NC1CCN(c2cc(C#N)cc(Nc3nc(NC4CC4)c4ncc(C#N)n4n3)c2Cl)CC1 (racemic) [Example 123, (+/−) 2-((2-chloro-5-cyano-3-(4-(((2S,3S)-2-methyltetrahydro-3-furanyl)amino)-1-piperidinyl)phenyl)amino)-4-(cyclopropylamino)imidazo [2,1-f][1,2,4]triazine-7-carbonitrile] | 9.26 |
| N#Cc1cnc2c(NC3CC3)nc(Nc3cc(C(F)F)cc(N4CCN(CC(F)F)CC4)c3Cl)nn12 [Example 248, 2-((2-chloro-3-(4-(2,2-difluoroethyl)-1-piperazinyl)-5-(difluoromethyl)phenyl)amino)-4-(cyclopropylamino)imidazo[2,1-f][1,2,4]triazine-7-carbonitrile] | 8.49 |
| COC(=O)N1CCC(c2cc(C#N)cc(Nc3nc(NC4CC4)c4ncc(C#N)n4n3)c2Cl)CC1 [Example 226, methyl 4-(2-chloro-5-cyano-3-((7-cyano-4-(cyclopropylamino)imidazo[2,1-f][1,2,4]triazin-2-yl)amino)phenyl)piperidine-1-carboxylate] | 9.32 |
| N#Cc1cc(Nc2nc(NC3CC3)c3ncc(C#N)n3n2)c(Cl)c(N2CCC[C@@H](NC3COC3)C2)c1 [Example 42, 2-((2-chloro-5-cyano-3-((3R)-3-(3-oxetanylamino)-1-piperidinyl)phenyl)amino)-4-(cyclopropylamino)imidazo [2,1-f][1,2,4]triazine-7-carbonitrile] | 8.59 |
| N#Cc1cc(Nc2nc(NC3CC3)c3ncc(C#N)n3n2)c(Cl)c(N2CCN(C3(C#N)COC3)CC2)c1 [Example 104, 2-((2-chloro-5-cyano-3-(4-(3-cyano-3-oxetanyl)-1-piperazinyl)phenyl)amino)-4-(cyclopropylamino) imidazo[2,1-f][1,2,4] triazine-7-carbonitrile] | 9.15 |
| N#Cc1cc(Nc2nc(NC3CC3)c3ncc(C#N)n3n2)c(Cl)c(N2CCN(C(=O)CCCn3ccnc3)CC2)c1 [Example 96, 2-((2-chloro-5-cyano-3-(4-(4-(1H-imidazol-1-yl)butanoyl)-1-piperazinyl)phenyl)amino)-4-(cyclopropylamino) imidazo[2,1-f][1,2,4] triazine-7-carbonilrile] | 9.20 |
| CCNc1nc(Nc2cc(C#N)cc(N3CC[C@@H](NC(=O)OCC)[C@H](O)C3)c2Cl)nn2c(C#N)cnc12 [Example 332, ethyl ((3R,4R)-1-(2-chloro-5-cyano-3-((7-cyano-4-(ethylamino)imidazo[2,1-f][1,2,4]triazin-2-yl)amino)phenyl)-3-hydroxypiperidin-4-yl)carbamate] | 9.39 |
| N#Cc1cc(Nc2nc(NC3CC3)c3ncc(C#N)n3n2)c(Cl)c(N2CCN3CCC2C3)c1 (stereo not shown) [Example 8, 2-((2-chloro-5-cyano-3-(1,4-diazabicyclo[3.2.1]oct-4-yl)phenyl)amino)-4-(cyclopropylamino)imidazo [2,1-f][1,2,4]triazine-7-carbonitrile] | 9.28 |
